In PubChem BioAssay AID248 (DTP/NCI, 2004):
“And” between values parts separate entries of the source, which are not always exact repeats. Identical values can stand only once. Toxic doses and inconclusive results are not listed. Rule as the data show it: active = T/C of 150% or more; inactive = T/C below 125%.

Tested on: L1210 leukemia ip in BDF1 mice, survival T/C
Assay: NCI In Vivo Anticancer Drug Screen. Data for tumor model L1210 Leukemia (intraperitoneal) in B6D2F1 (BDF1) mice
Settings: endpoint: mean survival time, higher = longer survival
In short: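 Tumor cells were implanted, animals were treated, and survival was followed. The result divides the treated measurement by the vehicle-control measurement.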

[1] = dose: 25.0 mg/kg/injection, schedule: Q04DX003 (ip), vehicle: Klucel (hydroxypropylcellulose) (HPC)
[2] = dose: 50.0 mg/kg/injection, schedule: Q04DX003 (ip), vehicle: Klucel (hydroxypropylcellulose) (HPC)
[3] = dose: 100.0 mg/kg/injection, schedule: Q04DX003 (ip), vehicle: Klucel (hydroxypropylcellulose) (HPC)
[4] = dose: 100.0 mg/kg/injection, schedule: Q01DX001 (ip), vehicle: other
[5] = dose: 200.0 mg/kg/injection, schedule: Q01DX001 (ip), vehicle: other
[6] = dose: 400.0 mg/kg/injection, schedule: Q01DX001 (ip), vehicle: other
[7] = dose: 100.0 mg/kg/injection, schedule: Q01DX009 (ip), vehicle: saline
[8] = dose: 200.0 mg/kg/injection, schedule: Q01DX009 (ip), vehicle: saline
[9] = dose: 100.0 mg/kg/injection, schedule: Q01DX001 (ip), vehicle: saline
[10] = dose: 200.0 mg/kg/injection, schedule: Q01DX001 (ip), vehicle: saline
[11] = dose: 400.0 mg/kg/injection, schedule: Q01DX001 (ip), vehicle: saline
[12] = dose: 200.0 mg/kg/injection, schedule: Q04DX003 (ip), vehicle: Klucel (hydroxypropylcellulose) (HPC)
[13] = dose: 400.0 mg/kg/injection, schedule: Q04DX003 (ip), vehicle: Klucel (hydroxypropylcellulose) (HPC)
[14] = dose: 100.0 mg/kg/injection, schedule: Q01DX001 (ip), vehicle: Klucel (hydroxypropylcellulose) (HPC)
[15] = dose: 200.0 mg/kg/injection, schedule: Q01DX001 (ip), vehicle: Klucel (hydroxypropylcellulose) (HPC)
[16] = dose: 400.0 mg/kg/injection, schedule: Q01DX001 (ip), vehicle: Klucel (hydroxypropylcellulose) (HPC)
[17] = dose: 100.0 mg/kg/injection, schedule: Q01DX009 (ip), vehicle: Klucel (hydroxypropylcellulose) (HPC)
[18] = dose: 200.0 mg/kg/injection, schedule: Q01DX009 (ip), vehicle: Klucel (hydroxypropylcellulose) (HPC)
[19] = dose: 400.0 mg/kg/injection, schedule: Q01DX009 (ip), vehicle: Klucel (hydroxypropylcellulose) (HPC)

Measured: T/C

Cc1ccc([N+](=O)[O-])cc1N=Nc1ccc(O)c(C(=O)O)c1
inactive: [1] 93 % of control | [2] 96 % of control | [3] 96 % of control and 88 % of control

COc1ccc2ccc(=O)oc2c1CC=C(C)C
inactive: [4] 98 % of control | [5] 93 % of control | [6] 101 % of control

CC(C)(C)CC(C)(C)c1ccc(O)cc1
inactive: dose: 62.5 mg/kg/injection, schedule: Q01DX Z (ip), vehicle: saline 95 % of control | dose: 100.0 mg/kg/injection, schedule: Q01DX001 (ip), vehicle: carboxymethylcellulose (CMC) 94 % of control | dose: 125.0 mg/kg/injection, schedule: Q01DX Z (ip), vehicle: saline 101 % of control | dose: 200.0 mg/kg/injection, schedule: Q01DX001 (ip), vehicle: carboxymethylcellulose (CMC) 100 % of control | dose: 250.0 mg/kg/injection, schedule: Q01DX Z (ip), vehicle: saline 90 % of control | dose: 400.0 mg/kg/injection, schedule: Q01DX001 (ip), vehicle: carboxymethylcellulose (CMC) 100 % of control | dose: 500.0 mg/kg/injection, schedule: Q01DX Z (ip), vehicle: saline 100 % of control

CCc1cccc(OC/C=C(\C)CC/C=C(\C)CCC2OC2(C)C)c1 (stereo not given)
inactive: dose: 100.0 mg/kg/injection, schedule: Q04DX002 (ip), vehicle: saline with Tween-80 103 % of control | dose: 200.0 mg/kg/injection, schedule: Q04DX002 (ip), vehicle: saline with Tween-80 97 % of control | dose: 400.0 mg/kg/injection, schedule: Q04DX002 (ip), vehicle: saline with Tween-80 100 % of control

O=C1/C(=C/c2ccco2)CCC2CC3(CCC12)OCCO3 (stereo not given)
inactive: [7] 116 % of control | dose: 100.0 mg/kg/injection, schedule: Q04DX003 (ip), vehicle: saline 92 % of control | [8] 102 % of control | dose: 200.0 mg/kg/injection, schedule: Q04DX003 (ip), vehicle: saline 97 % of control | dose: 400.0 mg/kg/injection, schedule: Q01DX009 (ip), vehicle: saline 98 % of control | dose: 400.0 mg/kg/injection, schedule: Q04DX003 (ip), vehicle: saline 94 % of control

N#CC(C#N)=Cc1ccc([N+](=O)[O-])s1
inactive: dose: 12.5 mg/kg/injection, schedule: Q04DX002 (ip), vehicle: Klucel (hydroxypropylcellulose) (HPC) 96 % of control | dose: 25.0 mg/kg/injection, schedule: Q04DX002 (ip), vehicle: Klucel (hydroxypropylcellulose) (HPC) 100 % of control

O=C(Nc1ccc(F)cc1)c1ccc([N+](=O)[O-])cc1
inactive: dose: 100.0 mg/kg/injection, schedule: Q04DX002 (ip), vehicle: Klucel (hydroxypropylcellulose) (HPC) 95 % of control | dose: 200.0 mg/kg/injection, schedule: Q04DX002 (ip), vehicle: Klucel (hydroxypropylcellulose) (HPC) 95 % of control | dose: 400.0 mg/kg/injection, schedule: Q04DX002 (ip), vehicle: Klucel (hydroxypropylcellulose) (HPC) 92 % of control

Cc1ccc(S(=O)(=O)CC#CCOc2ccccc2)cc1
inactive: dose: 50.0 mg/kg/injection, schedule: Q01DX009 (ip), vehicle: saline 92 % of control | [9] 92 % of control | [7] 105 % of control | [10] 97 % of control | [8] 92 % of control | [11] 101 % of control

Cc1ncc([N+](=O)[O-])n1CCN1CCOCC1
inactive: dose: 100.0 mg/kg/injection, schedule: Q04DX002 (ip), vehicle: saline 102 % of control | dose: 200.0 mg/kg/injection, schedule: Q04DX002 (ip), vehicle: saline 96 % of control | dose: 400.0 mg/kg/injection, schedule: Q04DX002 (ip), vehicle: saline 98 % of control

CN1CCC(c2ccccc2)c2ccccc21 (stereo not given)
inactive: dose: 100.0 mg/kg/injection, schedule: Q04DX003 (ip), vehicle: other 95 % of control | dose: 200.0 mg/kg/injection, schedule: Q04DX003 (ip), vehicle: other 120 % of control | dose: 400.0 mg/kg/injection, schedule: Q04DX003 (ip), vehicle: other 98 % of control

CC(=O)c1ccc2c(c1)sc1ccccc12
inactive: dose: 50.0 mg/kg/injection, schedule: Q01DX001 (ip), vehicle: other 96 % of control | [4] 96 % of control | [5] 96 % of control | [6] 87 % of control

C/C=C(\C)C(=O)OC1CC(C)=C2C(=O)C=C(C)C2C2OC(=O)C(C)C12 (stereo not given)
inactive: [3] 98 % of control | [12] 102 % of control | [13] 96 % of control

COC(=O)c1ccc[n+](Cc2c(Cl)cccc2Cl)c1
inactive: dose: 75.0 mg/kg/injection, schedule: Q01DX001 (ip), vehicle: saline 95 % of control | dose: 150.0 mg/kg/injection, schedule: Q01DX001 (ip), vehicle: saline 96 % of control

[Co+2].[N-]=Cc1ccccc1O.[N-]=Cc1ccccc1O
inactive: [1] 110 % of control | [2] 113 % of control | [3] 99 % of control and 118 % of control

O=c1[nH]cc(NCc2ccco2)c(=O)[nH]1
inactive: [3] 101 % of control | [12] 88 % of control | [13] 93 % of control

c1ccc(C(c2ccccc2)c2ccc(C(c3ccccc3)(c3ccccc3)c3ccccc3)cc2)cc1
inactive: dose: 87.5 mg/kg/injection, schedule: Q04DX003 (ip), vehicle: Klucel (hydroxypropylcellulose) (HPC) 88 % of control

Nc1nc(N)c2c(n1)SCC(c1ccc(Cl)cc1)=N2
inactive: dose: 75.0 mg/kg/injection, schedule: Q01DX001 (ip), vehicle: other 101 % of control | dose: 150.0 mg/kg/injection, schedule: Q01DX001 (ip), vehicle: other 98 % of control

O=C(O)CCCCCCCCC(=O)c1cc(O)ccc1O
inactive: [14] 94 % of control | [15] 94 % of control | [16] 106 % of control

Nc1ncnc(N)c1NC(=O)COc1ccc([N+](=O)[O-])cc1
inactive: [14] 102 % of control | [15] 94 % of control | [16] 100 % of control

O=C(c1ccccc1)C1CCC(Cl)CC1 (stereo not given)
inactive: [4] 96 % of control | [5] 101 % of control | [6] 102 % of control

O=C(NCCCl)Nn1c2ccccc2c2ccccc21
inactive: [17] 86 % of control | [3] 104 % of control | [18] 95 % of control | [12] 98 % of control | [19] 88 % of control | [13] 106 % of control

NCC(=O)c1cc2ccccc2[n+]([O-])c1
inactive: [17] 87 % of control | [3] 92 % of control | [18] 93 % of control | [12] 97 % of control | [19] 93 % of control | [13] 97 % of control

O=C(O)C1CCCN1[N+](=O)[O-] (stereo not given)
inactive: [9] 100 % of control | [10] 104 % of control | [11] 110 % of control

O=[N+]([O-])c1ccc(Cl)c(OCCCBr)c1
inactive: [3] 108 % of control | [12] 95 % of control | [13] 94 % of control

CCc1ccc(NC(=O)Nc2cccc3ccccc23)cc1
inactive: [17] 87 % of control | [3] 98 % of control | [18] 90 % of control | [12] 90 % of control | [19] 92 % of control | [13] 96 % of control

CC(C)=CCC(OC(=O)C=C(C)C)C1=CC(=O)c2c(O)ccc(O)c2C1=O (stereo not given)
inactive: dose: 6.25 mg/kg/injection, schedule: Q01DX009 (ip), vehicle: saline 93 % of control | dose: 6.25 mg/kg/injection, schedule: Q04DX003 (ip), vehicle: saline 98 % of control | dose: 12.5 mg/kg/injection, schedule: Q01DX009 (ip), vehicle: saline 92 % of control | dose: 12.5 mg/kg/injection, schedule: Q04DX003 (ip), vehicle: saline 101 % of control | dose: 25.0 mg/kg/injection, schedule: Q04DX003 (ip), vehicle: saline 104 % of control
